Measured values reported in patent US11530206B2, “Phenylaminopyrimidine amide autophagy inhibitors and methods of use thereof” (Deciphera Pharmaceuticals, LLC, priority 2019, dated 2022).

Key:
[1] = target: T1, ULK2 kinase (Homo sapiens, UniProt Q8IYT8); assay: Biochemical assay for ULK2 (coupled pyruvate kinase/lactate dehydrogenase assay); conditions: 9.7 nM ULK2 (residues 1-306, GST and His tag), myelin basic protein, 1 mM ATP; read-out: ULK2.2
T1 construct: purchased Eurofins 14-772
Method: Example 132. Biochemical Assay for ULK2 (SEQ. ID NO: 3)
Activity of ULK2 kinase was determined spectroscopically using a coupled pyruvate kinase/lactate dehydrogenase assay that continuously monitors the ATP hydrolysis-dependent oxidation of NADH (e.g., Schindler et al. Science (2000) 289: 1938-1942). Assays were conducted in 384-well plates (100 uL final volume) using 9.7 nM ULK2 (Eurofins CAT #14-772), 0.25 mg/mL myelin basic protein, 1.5 units pyruvate kinase, 2.1 units lactate dehydrogenase, 1 mM phosphoenol pyruvate, 0.28 mM NADH and 1 mM ATP in assay buffer (100 mM Tris, pH 7.5, 15 mM MgCl2, 0.5 mM DTT, 0.1% octyl-glucoside, 0.002% (w/v) BSA, and 0.002% Triton X-100). Inhibition of ULK2 was measured by adding serial diluted test compound (final assay concentration of 1% DMSO). A decrease in absorption at 340 nm was monitored continuously for 6 hours at 30° C. on a multi-mode microplate reader (BioTek). The reaction rate was calculated using the 2-3 h time frame. The reaction rate at each concentration of compound was converted to percent inhibition using controls (i.e. reaction with no test compound and reaction with a known inhibitor) and IC50 values were calculated by fitting a four-parameter sigmoidal curve to the data using Prism (GraphPad software).

[2] = target: T2, ULK1 kinase (Homo sapiens, UniProt O75385); assay: Biochemical assay for ULK1.2 (coupled pyruvate kinase/lactate dehydrogenase assay); conditions: 19 nM ULK1 (residues 1-314, His tag), myelin basic protein, 1 mM ATP
T2 construct: purchased Eurofins 14-959
T2 sequence (O75385 with tags, fused parts or gaps): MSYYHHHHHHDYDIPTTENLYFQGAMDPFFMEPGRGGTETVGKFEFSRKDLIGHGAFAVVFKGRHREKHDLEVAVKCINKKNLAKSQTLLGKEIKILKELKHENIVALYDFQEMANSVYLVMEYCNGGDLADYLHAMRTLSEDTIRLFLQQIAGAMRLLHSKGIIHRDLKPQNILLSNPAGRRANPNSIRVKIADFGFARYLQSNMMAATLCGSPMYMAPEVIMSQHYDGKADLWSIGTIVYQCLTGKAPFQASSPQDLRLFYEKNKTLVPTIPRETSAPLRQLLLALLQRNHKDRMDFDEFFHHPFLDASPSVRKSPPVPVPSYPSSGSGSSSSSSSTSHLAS
Method: Biochemical Assay for ULK1.2 (SEQ. ID NO: 1)
Inhibition of ULK1 was measured by adding serial diluted test compound (final assay concentration of 1% DMSO). A decrease in absorption at 340 nm was monitored continuously for 6 hours at 30° C. on a multi-mode microplate reader (BioTek). The reaction rate was calculated using the 2-3 h time frame. The reaction rate at each concentration of compound was converted to percent inhibition using controls (i.e. reaction with no test compound and reaction with a known inhibitor) and IC50 values were calculated by fitting a four-parameter sigmoidal curve to the data using Prism (GraphPad software).

[3] = system: ULK kinase; assay: pATG13 levels of mutant KRas MiaPaCa-2 cells after treatment with ULK inhibitors in combination with trametinib (ELISA); type: cell-based, human; conditions: MiaPaCa-2 pancreatic cancer cells, 250 nM trametinib, overnight, pS318-ATG13
Summary of the method: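 MiaPaCa-2 cells in DMEM with 10% FBS and 2.5% horse serum were pretreated with trametinib or DMSO, then given a test-compound dose response overnight at 37° C. Lysates were assayed for phospho-ATG13 by ELISA (A450 minus A540 background, blank-corrected). % phosphorylation was calculated relative to controls and fitted to IC50.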

[4] = system: ULK kinase; assay: pATG13 levels of mutant KRas A549 cells after treatment with ULK inhibitors in combination with trametinib (ELISA); type: cell-based, human; conditions: A549 (KRAS mutant) lung cancer cells, 250 nM trametinib, overnight, pS318-ATG13
Summary of the method: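 Lysates with phosphatase/protease inhibitors assayed by pATG13 ELISA, A450 minus A540 background and blank-corrected. % ATG13 phosphorylation versus DMSO controls fitted to IC50.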

[5] = target: T3, LRRK2 kinase (Homo sapiens, UniProt Q5S007); assay: Biochemical assay for LRRK2 (coupled pyruvate kinase/lactate dehydrogenase assay); conditions: 26.4 nM LRRK2 (residues 970-2528), peptide substrate, 1 mM ATP
T3 construct: purchased Thermo Fisher
Method: Example 138. Biochemical Assay for LRRK2 (SEQ. ID NO: 4)
Activity of LRRK2 kinase was determined spectroscopically using a coupled pyruvate kinase/lactate dehydrogenase assay that continuously monitors the ATP hydrolysis-dependent oxidation of NADH (e.g., Schindler et al. Science (2000) 289: 1938-1942). Assays were conducted in 384-well plates (100 μL final volume) using 26.4 nM LRRK2 (Thermo Fisher), 0.1 mM peptide substrate ([…] (SEQ ID NO: 6)), 1.5 units pyruvate kinase, 2.1 units lactate dehydrogenase, 1 mM phosphoenol pyruvate, 0.28 mM NADH and 1 mM ATP in assay buffer (100 mM Tris, pH 7.5, 15 mM MgCl2, 0.5 mM DTT, 0.004% (w/v) BSA, and 0.004% Triton X-100). Inhibition of LRRK2 was measured by adding serial diluted test compound (final assay concentration of 1% DMSO). A decrease in absorption at 340 nm was monitored continuously for 6 hours at 30° C. on a multi-mode microplate reader (BioTek). The reaction rate was calculated using the 2-3 h time frame. The reaction rate at each concentration of compound was converted to percent inhibition using controls (i.e. reaction with no test compound and reaction with a known inhibitor) and IC50 values were calculated using software routines in Prism (GraphPad software).

[6] = target: T4, ULK1 kinase (Homo sapiens, UniProt O75385, E37A/K38A); assay: Biochemical assay for ULK1.3 (coupled pyruvate kinase/lactate dehydrogenase assay, peptide substrate); conditions: 0.1 nM ULK1 (residues 1-283), 1 mM ATP
T4 construct: purchased Beryllium
T4 sequence (O75385 1-283 E37A/K38A): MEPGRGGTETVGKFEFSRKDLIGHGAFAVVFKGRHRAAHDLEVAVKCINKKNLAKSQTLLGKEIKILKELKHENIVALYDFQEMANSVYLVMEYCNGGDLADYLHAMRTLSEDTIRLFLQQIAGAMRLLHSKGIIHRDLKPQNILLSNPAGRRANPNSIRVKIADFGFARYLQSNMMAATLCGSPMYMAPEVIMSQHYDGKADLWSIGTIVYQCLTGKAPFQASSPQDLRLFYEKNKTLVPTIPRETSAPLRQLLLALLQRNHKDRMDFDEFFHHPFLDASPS
Summary of the method: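 ULK1.3 activity was followed by continuous decrease in 340 nm absorbance over 6 h at 30 °C with 1% DMSO final. Rates were taken from the 2–3 h window and converted to percent inhibition against no-compound and known-inhibitor controls. IC50 values came from curve fitting.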

T1 sequence (Q8IYT8 with tags, fused parts or gaps): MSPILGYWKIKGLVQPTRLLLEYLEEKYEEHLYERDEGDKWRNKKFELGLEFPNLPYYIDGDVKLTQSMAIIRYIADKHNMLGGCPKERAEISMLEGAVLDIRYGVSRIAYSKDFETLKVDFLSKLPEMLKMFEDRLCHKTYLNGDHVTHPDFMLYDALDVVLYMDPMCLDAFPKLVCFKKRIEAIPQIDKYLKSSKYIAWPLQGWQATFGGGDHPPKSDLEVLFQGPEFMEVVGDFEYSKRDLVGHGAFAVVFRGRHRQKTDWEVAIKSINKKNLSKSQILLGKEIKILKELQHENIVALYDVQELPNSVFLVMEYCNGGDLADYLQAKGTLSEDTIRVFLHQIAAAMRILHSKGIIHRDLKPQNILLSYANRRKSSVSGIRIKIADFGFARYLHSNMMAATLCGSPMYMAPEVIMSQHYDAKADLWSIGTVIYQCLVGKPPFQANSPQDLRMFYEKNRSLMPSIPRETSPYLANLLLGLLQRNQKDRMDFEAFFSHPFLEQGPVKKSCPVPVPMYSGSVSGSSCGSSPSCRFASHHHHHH
T3 sequence (Q5S007 with tags, fused parts or gaps): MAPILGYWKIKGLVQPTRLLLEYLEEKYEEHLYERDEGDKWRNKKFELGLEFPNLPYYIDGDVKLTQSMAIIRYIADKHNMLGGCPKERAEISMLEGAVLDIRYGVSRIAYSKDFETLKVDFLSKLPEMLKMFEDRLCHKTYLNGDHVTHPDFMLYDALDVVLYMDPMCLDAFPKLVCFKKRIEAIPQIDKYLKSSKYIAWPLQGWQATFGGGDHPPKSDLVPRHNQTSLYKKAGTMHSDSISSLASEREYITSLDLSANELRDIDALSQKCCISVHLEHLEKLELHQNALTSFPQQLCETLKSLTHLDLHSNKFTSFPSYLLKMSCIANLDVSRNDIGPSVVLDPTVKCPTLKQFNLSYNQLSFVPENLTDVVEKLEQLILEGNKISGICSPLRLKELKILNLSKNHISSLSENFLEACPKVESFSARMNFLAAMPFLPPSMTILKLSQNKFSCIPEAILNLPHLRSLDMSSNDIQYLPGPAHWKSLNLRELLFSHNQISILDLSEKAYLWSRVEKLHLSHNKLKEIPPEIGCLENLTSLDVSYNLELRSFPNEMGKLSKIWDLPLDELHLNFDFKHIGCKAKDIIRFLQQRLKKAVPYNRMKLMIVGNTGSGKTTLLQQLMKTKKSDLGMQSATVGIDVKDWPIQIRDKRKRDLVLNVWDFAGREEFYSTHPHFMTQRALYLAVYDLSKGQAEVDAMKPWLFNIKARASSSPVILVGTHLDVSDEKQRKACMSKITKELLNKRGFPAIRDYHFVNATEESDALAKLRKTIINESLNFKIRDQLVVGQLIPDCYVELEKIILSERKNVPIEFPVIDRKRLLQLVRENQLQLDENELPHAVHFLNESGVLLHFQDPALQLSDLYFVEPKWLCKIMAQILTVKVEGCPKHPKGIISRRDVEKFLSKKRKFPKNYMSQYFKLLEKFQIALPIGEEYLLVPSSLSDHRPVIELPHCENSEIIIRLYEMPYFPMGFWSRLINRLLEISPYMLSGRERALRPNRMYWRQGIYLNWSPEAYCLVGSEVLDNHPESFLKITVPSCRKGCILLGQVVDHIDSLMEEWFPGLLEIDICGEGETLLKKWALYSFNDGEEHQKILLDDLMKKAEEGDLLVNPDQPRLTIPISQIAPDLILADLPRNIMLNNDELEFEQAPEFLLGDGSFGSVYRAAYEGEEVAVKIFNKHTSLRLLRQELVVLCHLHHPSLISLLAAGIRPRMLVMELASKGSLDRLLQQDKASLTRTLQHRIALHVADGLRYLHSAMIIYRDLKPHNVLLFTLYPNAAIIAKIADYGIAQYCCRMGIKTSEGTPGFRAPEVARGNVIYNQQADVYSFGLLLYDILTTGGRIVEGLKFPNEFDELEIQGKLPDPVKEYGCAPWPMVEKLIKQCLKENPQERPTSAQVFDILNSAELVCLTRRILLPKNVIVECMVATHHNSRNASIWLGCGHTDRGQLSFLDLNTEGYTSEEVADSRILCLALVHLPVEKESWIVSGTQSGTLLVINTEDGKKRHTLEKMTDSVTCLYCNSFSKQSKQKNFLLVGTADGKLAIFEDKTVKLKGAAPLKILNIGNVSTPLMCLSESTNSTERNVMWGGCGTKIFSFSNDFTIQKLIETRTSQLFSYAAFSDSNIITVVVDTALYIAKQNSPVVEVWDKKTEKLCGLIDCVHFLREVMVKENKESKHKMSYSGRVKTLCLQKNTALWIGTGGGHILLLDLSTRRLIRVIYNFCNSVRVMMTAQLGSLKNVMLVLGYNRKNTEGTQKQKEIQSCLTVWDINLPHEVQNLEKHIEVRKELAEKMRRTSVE

Row | SMILES | IC50 [1] [nM] | IC50 [2] [nM] | IC50 [3] [nM] | IC50 [4] [nM] | IC50 [5] [nM] | IC50 [6] [nM]
1 | CCN1CCN(c2ccc(Nc3ncc(C(F)(F)F)c(NCCCN4CCCCC4=O)n3)c(C3CC3)c2)CC1 [Example 13] | 1 to 25 | 1 to 25 | 10 to 100 | 10 to 100 |  | 
2 | Cc1cc(N2CCN(CCF)CC2)ccc1Nc1ncc(C(F)(F)F)c(NCCCN2CCCCC2=O)n1 [Example 18] | 25 to 100 | 100 to 500 |  |  | 1 to 100 | 
3 | Cc1cc(C2CCN(C)CC2)ccc1Nc1ncc(C(F)(F)F)c(NCCCN2CCCCC2=O)n1 [Example 8] | 100 to 500 | 25 to 100 |  | 100 to 300 |  | 
4 | Cc1cc(N2CCN(C3CCC3)CC2)ccc1Nc1ncc(C(F)(F)F)c(NCCCN2CCCCC2=O)n1 [Example 21] | 1 to 25 | 1 to 25 | 100 to 300 | 300 to 600 |  | 
5 | Cc1cc(N2CCN(C3CC3)CC2)ccc1Nc1ncc(C(F)(F)F)c(NCCCN2CCCCC2=O)n1 [Example 22] | 100 to 500 | 1 to 25 |  |  |  | 
6 | CCN1CCCN(c2ccc(Nc3ncc(C(F)(F)F)c(NCCCN4CCCCC4=O)n3)cc2)CC1 [Example 10, 1-(3-((2-((4-(4-ethyl-1,4-diazepan-1-yl)phenyl)amino)-5-(trifluoromethyl)pyrimidin-4-yl)amino)propyl)piperidin-2-one] | 1 to 25 | 1 to 25 | 100 to 300 | 100 to 300 |  | 
7 | O=C1CCCCN1CCCNc1nc(Nc2ccc(N3CCCNCC3)cc2)ncc1C(F)(F)F [Example 9, 1-(3-((2-((4-(1,4-diazepan-1-yl)phenyl)amino)-5-(trifluoromethyl)pyrimidin-4-yl)amino)propyl)piperidin-2-one] | 1 to 25 | 1 to 25 |  |  |  | 
8 | Cc1cc(C2CCNCC2)ccc1Nc1ncc(C(F)(F)F)c(NCCCN2CCCCC2=O)n1 [Example 7] | 100 to 500 | 25 to 100 |  | > 600 |  | 
9 | CCc1cc(N2CCN(C)CC2)ccc1Nc1ncc(C(F)(F)F)c(NCCCN2CCCC2=O)n1 [Example 4] | 100 to 500 | 25 to 100 | 300 to 600 | 300 to 600 |  | 
10 | CCc1cc(N2CCN(CC)CC2)ccc1Nc1ncc(C(F)(F)F)c(NCCCN2CCCCC2=O)n1 [Example 12] | 1 to 25 | 1 to 25 | 10 to 100 | 10 to 100 |  | 
11 | CCN1CCN(c2ccc(Nc3ncc(C(F)(F)F)c(NCCCN4CCCCC4=O)n3)c(C)c2)CC1 [Example 19] | 25 to 100 | 1 to 25 | 100 to 300 | 100 to 300 |  | 

Second part, the molecule after the results:

Row | IC50 [1] [nM] | IC50 [2] [nM] | IC50 [3] [nM] | IC50 [4] [nM] | IC50 [5] [nM] | IC50 [6] [nM] | SMILES
12 | > 500 | > 500 |  | > 600 | 1 to 100 |  | Cc1cc(-c2cn(C)cn2)ccc1Nc1ncc(C(F)(F)F)c(NCCCN2CCOCCC2=O)n1 [Example 109]
13 | 25 to 100 |  |  |  | 100 to 300 |  | CCc1cc(N2CCN(C)CC2)ccc1Nc1ncc(C(F)(F)F)c(NCCCN2CCOCCC2=O)n1 [Example 66]
14 | > 500 | > 500 |  |  | 300 to 600 |  | Cc1cc(N2CCOCC2)ncc1Nc1ncc(C(F)(F)F)c(NCCCN2CCCCC2=O)n1 [Example 90]
15 | > 500 | 100 to 500 | > 600 | > 600 | 1 to 100 |  | CCc1cc(N2CCOCC2)ccc1Nc1ncc(C(F)(F)F)c(NCCCN2CCCOCC2=O)n1 [Example 50]
16 | > 500 | > 500 |  |  |  |  | Cc1cc(N2CCOCC2)ncc1Nc1cc(NCCCN2CCCCC2=O)c(C(F)(F)F)cn1 [Example 96]
17 | 100 to 500 | 25 to 100 | > 600 | 100 to 300 |  | 25 to 100 | Cc1cc(N2CCN(C)CC2)ncc1Nc1ncc(C(F)(F)F)c(NCCCN2CCCCC2=O)n1 [Example 91]
18 | > 500 | 1 to 25 | > 600 |  |  |  | O=C1CCOCCN1CCCNc1nc(Nc2ccc(N3CCOCC3)cc2C2CC2)ncc1C(F)(F)F [Example 71]
19 | > 500 | > 500 |  | > 600 |  |  | CCc1cc(N2CCOCC2)ccc1Nc1ncc(Cl)c(NCCCN2CCCOCC2=O)n1 [Example 57]
20 | > 500 | 100 to 500 |  |  |  |  | Cc1cc(N2CCN(C)CC2)ncc1Nc1cc(NCCCN2CCCCC2=O)c(C(F)(F)F)cn1 [Example 95]
21 | > 500 | 25 to 100 | 300 to 600 |  |  |  | CCc1cc(N2CCOCC2)ccc1Nc1ncc(C(F)(F)F)c(NCCCN2CCOCCC2=O)n1 [Example 72]
22 | > 500 | > 500 |  |  | 1 to 100 |  | Cc1cc(-c2cnn(C)c2)ccc1Nc1ncc(C(F)(F)F)c(NCCCN2CCCCC2=O)n1 [Example 108]
23 | > 500 | > 500 |  |  |  |  | O=C1COCCCN1CCCNc1nc(Nc2ccc(N3CCOCC3)cc2C2CC2)ncc1Cl [Example 59]
24 | 25 to 100 | 1 to 25 | 100 to 300 | 10 to 100 |  |  | Cc1cc(N2CCN(C)CC2)ccc1Nc1ncc(C(F)(F)F)c(NCCCN2CCOCCC2=O)n1 [Example 65]
25 | > 500 | 100 to 500 |  |  | 1 to 100 |  | O=C1COCCCN1CCCNc1nc(Nc2ccc(N3CCOCC3)cc2C2CC2)ncc1C(F)(F)F [Example 51]
